Laboratory results reported in patent publication US6545014B2, “Method of treating glaucoma” (Texas Biotechnology Corporation, priority 1991, dated 2003).
Read-outs that look alike come from different tables or passages of the source.

Tests used:
[1] = target: T1, human ETA receptors (Homo sapiens, UniProt P25101); experiment: Binding Test #1: inhibition of 125I-endothelin-1 binding to ETA receptors (TE 671 cell membranes); details: incubation at 24° C.; generally the average of 2 to 3 experiments
T1 construct: host or cells: TE 671 cells (membranes)
T1 sequence (P25101 21-427): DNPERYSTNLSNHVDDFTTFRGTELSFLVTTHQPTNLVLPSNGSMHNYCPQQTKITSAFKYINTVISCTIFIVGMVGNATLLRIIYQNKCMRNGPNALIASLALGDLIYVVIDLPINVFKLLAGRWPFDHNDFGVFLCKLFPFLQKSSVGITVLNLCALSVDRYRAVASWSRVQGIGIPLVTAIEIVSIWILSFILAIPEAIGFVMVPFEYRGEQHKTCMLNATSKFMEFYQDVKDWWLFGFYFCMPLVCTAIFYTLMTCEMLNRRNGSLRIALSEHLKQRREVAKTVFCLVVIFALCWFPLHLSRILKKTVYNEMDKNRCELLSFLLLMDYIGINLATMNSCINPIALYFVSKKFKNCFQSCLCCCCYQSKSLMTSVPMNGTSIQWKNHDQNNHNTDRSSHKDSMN
Description: (§1) Compounds that are potential endothelin antagonists are identified by testing their ability to compete with ^125I-labeled ET-1 for binding to human ETA receptors or ETB receptors present on isolated cell membranes. The effectiveness of the test compound as an antagonist or agonist of the biological tissue response of endothelin can also be assessed by measuring the effect on endothelin induced contraction of isolated rat thoracic aortic rings. The ability of the compounds to act as antagonists or agonists for ETB receptors can be assess by testing the ability of the compounds are to inhibit endothelin-1 induced prostacyclin release from cultured bovine aortic endothelial cells.
TE 671 cells (ATCC Accession No. HTB 139) express ETA receptors. These cells were grown to confluence in T-175 flasks. Cells from multiple flasks were collected by scraping, pooled and centrifuged for 10 min at 190×g. The cells were resuspended in phosphate buffered saline (PBS) containing 10 mM EDTA using a Tenbroeck homogenizer. The suspension was centrifuged at 4° C. at 57,800×g for 15 min, the pellet was resuspended in 5 ml of buffer A (5 mM HEPES buffer, pH 7.4 containing aprotinin (100 KIU/ml)) and then frozen and thawed once. 5 ml of Buffer B (5 mM HEPES Buffer, pH 7.4 containing 10 mM MnCl2 and 0.001 % deoxyribonuclease Type 1) was added, the suspension mixed by inversion and then incubated at 37° C. for 30 minutes. The mixture was centrifuged at 57,800×g as described above, the pellet washed twice with buffer A and then resuspended in buffer C (30 mM HEPES buffer, pH 7.4 containing aprotinin (100 KIU/ml) to give a final protein concentration of 2 mg/ml and stored at −70° C. until use.
The membrane suspension was diluted with binding buffer (30 mM HEPES buffer, pH 7.4 containing 150 mM NaCl, 5 mM MgCl2, 0.5% Bacitracin) to a concentration of 8 μg/50, μl. ^125I-endothelin-1 (3,000 cpm, […]) was added to 50 μl of either: (A) endothelin-1 (for non specific binding) to give a final concentration 80 nM); (B) binding buffer (for total binding); or (C) a test compound (final concentration 1 nM to 100 μM). The membrane suspension (50 μl), containing up to 8 μg of membrane protein, was added to each of (A), (B), or (C). Mixtures were shaken, and incubated at 4° C. for 16-18 hours, and then centrifuged at 4° C. for 25 min at 2,500×g. Alternatively, the incubation was conducted at 24° C. When incubated at 24° C., the IC50 concentrations are 2- to 10-fold higher than when the incubation is conducted at 4° C. This, must be kept in mind when comparing IC50 concentrations among compounds provided herein.
The supernatant, containing unbound radioactivity, was decanted and the pellet counted on a Genesys multiwell gamma counter. The degree of inhibition of binding (D) was calculated according to the following equation: [formula]
Each test was generally performed in triplicate.

[2] = target: T2, human ETB receptor (Homo sapiens, UniProt P24530); experiment: Binding Test #2: inhibition of 125I-endothelin-1 binding to ETB receptors (transfected COS7 cell membranes); details: incubation at 24° C.; generally the average of 2 to 3 experiments
T2 construct: expressed in transfected cells; host or cells: COS7 cells
T2 sequence (P24530 27-442): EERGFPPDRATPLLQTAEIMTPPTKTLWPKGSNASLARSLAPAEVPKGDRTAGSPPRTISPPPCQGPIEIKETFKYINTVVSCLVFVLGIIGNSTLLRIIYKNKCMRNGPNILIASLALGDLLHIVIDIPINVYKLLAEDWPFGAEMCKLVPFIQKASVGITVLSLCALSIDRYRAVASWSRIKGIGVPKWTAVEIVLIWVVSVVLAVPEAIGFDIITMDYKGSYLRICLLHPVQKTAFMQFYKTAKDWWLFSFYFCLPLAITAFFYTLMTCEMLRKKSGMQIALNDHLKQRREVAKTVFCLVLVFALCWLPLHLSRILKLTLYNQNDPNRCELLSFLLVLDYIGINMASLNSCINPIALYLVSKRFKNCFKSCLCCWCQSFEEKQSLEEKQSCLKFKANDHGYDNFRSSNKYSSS
Description: as §1
COS7 cells were transfected with DNA encoding the ETB receptor, The resulting cells, which express the human ETB receptor, were grown to confluence in T-150 flasks. Membrane was prepared as described above. The binding assay was performed as described above using the membrane preparation diluted with binding buffer to a concentration of 1 μg/50 μl.
Briefly, the COS7 cells, described above, that had been transfected with DNA encoding the ETB receptor and express the human ETB receptor on their surfaces were grown to confluence in T-175 flasks. Cells from multiple flasks were collected by scraping, pooled and centrifuged for 10 min at 190×g. The cells were resuspended in phosphate buffered saline (PBS) containing 10 mM EDTA using a Tenbroeck homogenizer. The suspension was centrifuged at 4° C. 57,800×g for 15 min, the pellet was resuspended in 5 ml of buffer A (5mM HEPES buffer, pH 7.4 containing aprotinin (100 KIU/ml)) and then frozen and thawed once. Five ml of Buffer B (5 mM HEPES Buffer, pH 7.4 containing 10 mM MnCl2 and 0.001% deoxyribonuclease Type 1) was added, the suspension mixed by inversion and then incubated at 37° C. for 30 minutes. The mixture was centrifuged at 57,800×g as described above, the pellet washed twice with buffer A and then resuspended in buffer C (30 mM HEPES buffer, pH 7.4 containing aprotinin (100 KIU/ml) to give a final protein concentration of 2 mg/ml.
The binding assay was performed as described above using the membrane preparation diluted to give 1 μg/50, μl of binding buffer.

[3] = target: ETA receptor; details: cited from earlier work; for IC50: read-out: IC50, inhibition of 125I-labelled endothelin-1 binding
[4] = tested on: ETB receptors; details: concentrations up to 100 μM; cited from earlier work
[5] = tested on: isolated vascular strips; details: read-out: EC50, contractile agent; cited from earlier work

Row | Molecule | IC50 [1] [nM] | IC50 [2] [nM] | also measured
1 | Cc1noc(NS(=O)(=O)c2c(Cc3cccc4ccccc34)sc3ncccc23)c1Cl [N-(4-chloro-3-methyl-5-isoxazolyl)-2-(1-naphthylmethyl)thieno[2,3-b]pyridine-3-sulfonamide] | 34 | 560 | –
2 | Cc1ccc(Cc2sc3ncccc3c2S(=O)(=O)Nc2onc(C)c2Cl)c(C)c1 [N-(4-chloro-3-methyl-5-isoxazolyl)-2-(2,4-dimethylbenzyl)thieno[2,3-b]pyridine-3-sulfonamide] | 4.5 | 1500 | –
3 | COc1cccc(OC)c1Cc1sc2ncccc2c1S(=O)(=O)Nc1onc(C)c1Cl [N-(4-chloro-3-methyl-5-isoxazolyl)-2-(2,6-dimethoxybenzyl)thieno[2,3-b]pyridine-3-sulfonamide] | 650 | 10100 | –
4 | Cc1noc(NS(=O)(=O)c2c(Cc3cc4c(cc3CCO)OCO4)sc3ncccc23)c1Cl [N-(4-chloro-3-methyl-5-isoxazolyl)-2-[2-(2-hydroxyethyl)-4,5-(methylenedioxy)benzyl]thieno[2,3-b]pyridine-3-sulfonamide] | 1.5 | 3600 | –
5 | Cc1cc2c(cc1Cc1sc3ncccc3c1S(=O)(=O)Nc1onc(C)c1Cl)OCO2 [N-(4-chloro-3-methyl-5-isoxazolyl)-2-[2-methyl-4,5-(methylene-dioxy)benzyl]thieno [2,3-b]pyridine-3-sulfonamide] | 1.5 | 1600 | –
6 | Cc1noc(NS(=O)(=O)c2c(C(=O)c3ccc4c(c3)OCO4)sc3ncccc23)c1Cl [N-(4-chloro-3-methyl-5-isoxazolyl)-2-[3,4-(methylenedioxy)benzoyl]-thieno [2,3-b]pyridine-3-sulfonamide] | 960 | 31000 | –
7 | Cc1noc(NS(=O)(=O)c2c(Cc3ccc4c(c3)OCO4)sc3ncccc23)c1Cl [N-(4-chloro-3-methyl-5-isoxazolyl)-2-[3,4-(methylenedioxy)benzyl]thieno [2,3-b]pyridine-3-sulfonamide] | 5.6 | 2800 | –
8 | Cc1noc(NS(=O)(=O)c2c(C(=O)CCc3ccc4c(c3)OCO4)sc3ncccc23)c1Cl [N-(4-chloro-3-methyl-5-isoxazolyl)-2-[3-(3,4-methylenedioxyphenyl)-proponyl]thieno [2,3-b]pyridine-3-sulfonamide] | 45 | 6600 | –
9 | CCc1sc2ncccc2c1S(=O)(=O)Nc1onc(C)c1Cl [N-(4-chloro-3-methyl-5-isoxazolyl)-2-ethylthieno[2,3-b]pyridine-3-sulfonamide] | 68 | 39000 | –
10 | Cc1noc(NS(=O)(=O)c2csc3ncccc23)c1Cl [N-(4-chloro-3-methyl-5-isoxazolyl)thieno[2,3-b]pyridine-3-sulfonamide] | 1800 | > 100000 | –
11 | Cc1cc2c(cc1Cc1sc3ncccc3c1S(=O)(=O)Nc1noc(C)c1Cl)OCO2 [N-(4-chloro-5-methyl-3-isoxazolyl)-2-[2-methyl-4,5-(methylenedioxy)-benzyl]thieno[2,3-b]pyridine-3-sulfonamide] | 1 | 500 | –
12 | CCc1sc2ncccc2c1S(=O)(=O)Nc1noc(C)c1Cl [N-(4-chloro-5-methyl-3-isoxazolyl)-2-ethylthieno [2,3-b]pyridine-3-sulfonamide] | 45 | 30000 | –
13 | cyclo(D-Glu-L-Ala-allo-D-llc-L-Leu-D-Trp) [BE-18257B] | – | – | IC50 ([3]; aortic smooth muscle): 1400 nM; IC50 ([3]; cultured aortic smooth muscle cells): 500 nM; IC50 ([3]; ventricle membranes): 800 nM; inhibition of binding to receptors in tissues in which ETB receptors predominate [4]: fails to inhibit binding
14 | endothelin-1: potent twenty-one amino acid peptide vasoconstrictor | – | – | potency of inhibition of 125I-labelled endothelin-1 binding relative to endothelin-3 ([3]; cardiovascular tissues): forty to seven hundred times more potently than endothelin-3; EC50 [5]: 0.4 nM
